Patent US11780893B2, “Kv1.3 blockers” (Zealand Pharma A/S, priority 2019, dated 2023)
Bridge positions count the residues as written; N and C are the ends. Square brackets hold non-standard residues; d marks the D form. Peptide text beside a SMILES is read from it. Nle = CCCC[C@H](N)C(=O)O

Columns and labels:
Test in all cases: cell-based
[1] = target: T1, human Kv1.3 voltage-gated K+ channel (Homo sapiens, UniProt P22001); conditions: inhibition of thallium flux, CHO-DUKX cells with human Kv1.3; read-out: IC50
T1 construct: host or cells: CHO-DUKX

Kv1.1 = target: T2, Kv1.1 (Homo sapiens, UniProt Q09470); conditions: for IC50: CHO cells, whole-cell patch clamp, read-out: Potency IC50 (nM) Kv1.1; for Selectivity Kv1.1/Kv1.3: ratio IC50[Kv1.1]/IC50[Kv1.3]
T2 construct: expressed in transfected cells; host or cells: Chinese Hamster Ovary (CHO)

Kv1.2 = target: T3, Kv1.2 (Homo sapiens, UniProt P16389); conditions: for IC50: CHO cells, whole-cell patch clamp, read-out: Potency IC50 (nM) Kv1.2
T3 construct: expressed in transfected cells; host or cells: Chinese Hamster Ovary (CHO)

Kv1.3 = target: T4, Kv1.3 (Homo sapiens, UniProt P22001); conditions: CHO cells, whole-cell patch clamp; read-out: Potency IC50 (nM) Kv1.3
T4 construct: expressed in transfected cells; host or cells: Chinese Hamster Ovary (CHO)

Kv1.6 = target: T5, Kv1.6 (Homo sapiens, UniProt P17658); conditions: for IC50: CHO cells, whole-cell patch clamp, read-out: Potency IC50 (nM) Kv1.6; for Selectivity Kv1.6/Kv1.3: ratio IC50[Kv1.6]/IC50[Kv1.3]
T5 construct: expressed in transfected cells; host or cells: Chinese Hamster Ovary (CHO)
T5 sequence (P17658 whole entry): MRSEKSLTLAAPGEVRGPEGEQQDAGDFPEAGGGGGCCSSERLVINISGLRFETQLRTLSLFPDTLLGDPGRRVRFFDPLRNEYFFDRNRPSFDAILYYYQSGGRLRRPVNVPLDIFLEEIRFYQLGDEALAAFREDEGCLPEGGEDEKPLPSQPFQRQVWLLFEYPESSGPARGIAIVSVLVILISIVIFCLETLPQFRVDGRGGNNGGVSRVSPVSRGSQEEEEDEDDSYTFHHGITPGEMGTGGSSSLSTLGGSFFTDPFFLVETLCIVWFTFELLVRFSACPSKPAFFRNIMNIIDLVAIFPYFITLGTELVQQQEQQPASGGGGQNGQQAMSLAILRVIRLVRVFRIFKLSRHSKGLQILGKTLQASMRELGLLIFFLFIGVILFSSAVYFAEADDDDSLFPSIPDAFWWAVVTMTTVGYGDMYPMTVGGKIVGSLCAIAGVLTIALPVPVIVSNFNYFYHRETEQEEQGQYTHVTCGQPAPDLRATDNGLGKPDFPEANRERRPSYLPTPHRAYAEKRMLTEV

T2 sequence (Q09470 whole entry): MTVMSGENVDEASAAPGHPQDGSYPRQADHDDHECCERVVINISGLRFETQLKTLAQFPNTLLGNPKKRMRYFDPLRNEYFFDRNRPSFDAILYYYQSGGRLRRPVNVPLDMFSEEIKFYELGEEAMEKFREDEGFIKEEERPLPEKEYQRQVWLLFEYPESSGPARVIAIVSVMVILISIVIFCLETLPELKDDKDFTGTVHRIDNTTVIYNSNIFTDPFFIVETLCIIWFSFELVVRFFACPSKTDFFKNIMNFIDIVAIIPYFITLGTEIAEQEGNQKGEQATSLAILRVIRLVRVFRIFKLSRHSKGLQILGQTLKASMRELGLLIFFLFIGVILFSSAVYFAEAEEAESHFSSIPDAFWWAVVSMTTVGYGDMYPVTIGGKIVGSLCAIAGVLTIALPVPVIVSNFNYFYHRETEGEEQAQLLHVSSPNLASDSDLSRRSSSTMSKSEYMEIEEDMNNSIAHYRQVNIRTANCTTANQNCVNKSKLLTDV
T4 sequence (P22001 whole entry): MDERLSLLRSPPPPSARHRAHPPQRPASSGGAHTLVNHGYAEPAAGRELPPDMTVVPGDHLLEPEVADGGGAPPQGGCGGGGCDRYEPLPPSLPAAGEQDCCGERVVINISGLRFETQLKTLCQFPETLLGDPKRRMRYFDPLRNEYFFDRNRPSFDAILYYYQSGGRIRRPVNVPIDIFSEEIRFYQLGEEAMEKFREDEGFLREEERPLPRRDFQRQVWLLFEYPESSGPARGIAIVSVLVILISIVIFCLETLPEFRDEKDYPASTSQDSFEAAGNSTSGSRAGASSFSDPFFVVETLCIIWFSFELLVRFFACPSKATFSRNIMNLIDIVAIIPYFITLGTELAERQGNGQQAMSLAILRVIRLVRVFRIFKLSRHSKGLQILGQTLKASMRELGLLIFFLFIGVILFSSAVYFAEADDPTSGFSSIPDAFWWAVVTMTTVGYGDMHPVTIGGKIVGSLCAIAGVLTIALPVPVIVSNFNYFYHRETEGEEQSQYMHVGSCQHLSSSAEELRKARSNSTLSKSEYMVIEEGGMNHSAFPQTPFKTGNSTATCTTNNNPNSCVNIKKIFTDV
T1 sequence (P22001 whole entry): as above
T3 sequence (P16389 whole entry): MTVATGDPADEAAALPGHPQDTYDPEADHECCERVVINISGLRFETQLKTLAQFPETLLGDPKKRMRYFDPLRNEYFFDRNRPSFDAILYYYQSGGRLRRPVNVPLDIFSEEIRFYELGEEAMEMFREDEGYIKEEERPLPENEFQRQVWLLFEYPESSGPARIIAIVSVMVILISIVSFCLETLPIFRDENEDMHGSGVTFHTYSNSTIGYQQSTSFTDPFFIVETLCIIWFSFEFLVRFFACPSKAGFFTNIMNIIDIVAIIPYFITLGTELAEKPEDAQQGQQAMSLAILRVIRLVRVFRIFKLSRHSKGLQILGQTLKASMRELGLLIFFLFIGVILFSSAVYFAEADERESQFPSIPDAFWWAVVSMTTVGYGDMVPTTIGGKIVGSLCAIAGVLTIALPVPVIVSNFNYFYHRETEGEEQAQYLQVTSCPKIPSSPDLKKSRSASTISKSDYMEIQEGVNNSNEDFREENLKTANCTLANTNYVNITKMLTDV

| Structure (SMILES) | IC50 [1] | IC50 (Kv1.1) | Selectivity Kv1.1/Kv1.3 (Kv1.1) | IC50 (Kv1.2) | IC50 (Kv1.3) | IC50 (Kv1.6) | Selectivity Kv1.6/Kv1.3 (Kv1.6) | Selectivity Kv1.2/Kv1.3 (Kv1.2; ratio IC50[Kv1.2]/IC50[Kv1.3]) |
| --- | --- | --- | --- | --- | --- | --- | --- | --- |
| CCCC[C@H](NC(=O)[C@H](CC(=O)O)NC(=O)[C@H](CCCC)NC(=O)[C@@H](N)CO)C(=O)N[C@@H](CCCNC(=N)N)C(=O)N[C@H]1CSSC[C@@H]2NC(=O)[C@H](CCCCN)NC(=O)CNC(=O)[C@H](Cc3ccccc3)NC(=O)[C@H]([C@@H](C)CC)NC(=O)[C@H](CO)NC(=O)CNC(=O)[C@H]([C@@H](C)CC)NC(=O)[C@H](C)NC(=O)[C@H](CCCCN)NC(=O)[C@H](CC(C)C)NC(=O)[C@@H]3CSSC[C@@H](C(=O)N[C@@H](Cc4ccc(O)cc4)C(=O)N4CCC[C@H]4C(=O)N[C@@H](CCCNC(=N)N)C(N)=O)NC(=O)[C@H](CCCCN)NC(=O)[C@H](CSSC[C@H](NC(=O)[C@H](CCC(=O)O)NC(=O)[C@H](C(C)C)NC(=O)[C@H](CO)NC(=O)[C@H](C)NC(=O)[C@H](CO)NC1=O)C(=O)N[C@@H](C)C(=O)N[C@@H](CCC(N)=O)C(=O)N[C@@H](CO)C(=O)N3)NC(=O)[C@H](CCCCN)NC(=O)[C@H](CCCCN)NC(=O)[C@H](CC(N)=O)NC(=O)[C@H](CCSC)NC2=O [Compound 79] (H-S[Nle]D[Nle]RCSASVECAQSCLKAIGSIFGKCMNKKCKCYPR-NH2; disulfide 6-27, 12-32, 16-34) | 0.13 nM | > 3000 nM | >14600 | 1150 nM | 0.21 nM | > 3000 nM | >14600 |  |
| CC[C@H](C)[C@@H]1NC(=O)[C@H](C)NC(=O)[C@H](CCCCN)NC(=O)[C@H](CC(C)C)NC(=O)[C@@H]2CSSC[C@@H](C(=O)N[C@@H](Cc3ccc(O)cc3)C(=O)N3CCC[C@H]3C(=O)N[C@@H](CCCNC(=N)N)C(=O)O)NC(=O)[C@H](CCCCN)NC(=O)[C@@H]3CSSC[C@H](NC(=O)[C@H](CCC(=O)O)NC(=O)[C@H](C(C)C)NC(=O)[C@H](CO)NC(=O)[C@H](C)NC(=O)[C@H](CO)NC(=O)[C@@H](N)CSSC[C@H](NC(=O)[C@H](CCCCN)NC(=O)CNC(=O)[C@H](Cc4ccccc4)NC(=O)[C@H]([C@@H](C)CC)NC(=O)[C@H](CO)NC(=O)CNC1=O)C(=O)N[C@@H](CCSC)C(=O)N[C@@H](CC(N)=O)C(=O)N[C@@H](CCCCN)C(=O)N[C@@H](CCCCN)C(=O)N3)C(=O)N[C@@H](CCCCN)C(=O)N[C@@H](CCC(N)=O)C(=O)N[C@@H](CCCCN)C(=O)N2 [Compound 117] (H-CSASVECKQKCLKAIGSIFGKCMNKKCKCYPR-OH; disulfide 1-22, 7-27, 11-29) | 1.5 nM | > 3000 nM | >1400 | 1830 nM | 2.09 nM | > 3000 nM | >1400 |  |
| CC[C@H](C)[C@@H]1NC(=O)[C@H](C)NC(=O)[C@H](CCCCN)NC(=O)[C@H](CC(C)C)NC(=O)[C@@H]2CSSC[C@@H](C(=O)N[C@@H](Cc3ccc(O)cc3)C(=O)N3CCC[C@H]3C(=O)N[C@@H](CCCNC(=N)N)C(N)=O)NC(=O)[C@H](CCCCN)NC(=O)[C@@H]3CSSC[C@H](NC(=O)[C@H](CCC(=O)O)NC(=O)[C@H](C(C)C)NC(=O)[C@H](CO)NC(=O)[C@H](C)NC(=O)[C@H](CO)NC(=O)[C@@H](NC(=O)[C@H](CCCNC(=N)N)NC(=O)[C@H](CCSC)NC(=O)[C@H](CC(=O)O)NC(=O)[C@H](CCSC)NC(=O)[C@@H](N)CC(N)=O)CSSC[C@H](NC(=O)[C@H](CCCCN)NC(=O)CNC(=O)[C@H](Cc4ccccc4)NC(=O)[C@H](CCCCN)NC(=O)[C@H](CO)NC(=O)CNC1=O)C(=O)N[C@@H](CCSC)C(=O)N[C@@H](CC(N)=O)C(=O)N[C@@H](CCCCN)C(=O)N[C@@H](CCCCN)C(=O)N3)C(=O)N[C@@H](CCCCN)C(=O)N[C@@H](CCC(N)=O)C(=O)N[C@@H](CCCCN)C(=O)N2 [Compound 34] (H-NMDMRCSASVECKQKCLKAIGSKFGKCMNKKCKCYPR-NH2; disulfide 6-27, 12-32, 16-34) | 0.11 nM | > 3000 nM | >7100 | 100 nM | 0.42 nM | 207 nM |  |  |
| CC[C@H](C)[C@@H]1NC(=O)[C@H](C)NC(=O)[C@H](CCCCN)NC(=O)[C@H](CC(C)C)NC(=O)[C@@H]2CSSC[C@@H](C(=O)N[C@@H](Cc3ccc(O)cc3)C(=O)N3CCC[C@H]3C(=O)N[C@@H](CCCNC(=N)N)C(N)=O)NC(=O)[C@H](CCCCN)NC(=O)[C@@H]3CSSC[C@H](NC(=O)[C@H](CCC(=O)O)NC(=O)[C@H](C(C)C)NC(=O)[C@H](CO)NC(=O)[C@H](C)NC(=O)[C@H](CCCCN)NC(=O)[C@@H](NC(=O)[C@H](CCCNC(=N)N)NC(=O)[C@H](CCSC)NC(=O)[C@H](CC(=O)O)NC(=O)[C@H](CCSC)NC(=O)[C@@H](N)CC(N)=O)CSSC[C@H](NC(=O)[C@H](CCCCN)NC(=O)CNC(=O)[C@H](Cc4ccccc4)NC(=O)[C@H]([C@@H](C)CC)NC(=O)[C@H](CO)NC(=O)CNC1=O)C(=O)N[C@@H](CCSC)C(=O)N[C@@H](CC(N)=O)C(=O)N[C@@H](CCCCN)C(=O)N[C@@H](CCCCN)C(=O)N3)C(=O)N[C@@H](CCCCN)C(=O)N[C@@H](CCC(N)=O)C(=O)N[C@@H](CCCCN)C(=O)N2 [Compound 25] (H-NMDMRCKASVECKQKCLKAIGSIFGKCMNKKCKCYPR-NH2; disulfide 6-27, 12-32, 16-34) | 0.085 nM | > 3000 nM | >34200 | 67 nM | 0.09 nM | 363 nM |  |  |
| CC[C@H](C)[C@@H]1NC(=O)[C@H](C)NC(=O)[C@H](CCCCN)NC(=O)[C@H](CC(C)C)NC(=O)[C@@H]2CSSC[C@@H](C(=O)N[C@@H](Cc3ccc(O)cc3)C(=O)N3CCC[C@H]3C(=O)N[C@@H](CCCNC(=N)N)C(N)=O)NC(=O)[C@H](CCCCN)NC(=O)[C@@H]3CSSC[C@H](NC(=O)[C@H](CCC(=O)O)NC(=O)[C@H](C(C)C)NC(=O)[C@H](CO)NC(=O)[C@H](C)NC(=O)[C@H](CO)NC(=O)[C@@H](NC(=O)[C@H](CCCNC(=N)N)NC(=O)[C@H](CCSC)NC(=O)[C@H](CC(=O)O)NC(=O)[C@H](CCSC)NC(=O)[C@@H](N)CC(N)=O)CSSC[C@H](NC(=O)[C@H](CCCCN)NC(=O)CNC(=O)[C@H](Cc4ccccc4)NC(=O)[C@H]([C@@H](C)CC)NC(=O)[C@H](CO)NC(=O)CNC1=O)C(=O)N[C@@H](CCSC)C(=O)N[C@@H](CC(N)=O)C(=O)NCC(=O)N[C@@H](CCCCN)C(=O)N3)C(=O)N[C@@H](CCCCN)C(=O)N[C@@H](CCC(N)=O)C(=O)N[C@@H](CCCCN)C(=O)N2 [Compound 36] (H-NMDMRCSASVECKQKCLKAIGSIFGKCMNGKCKCYPR-NH2; disulfide 6-27, 12-32, 16-34) | 0.24 nM | > 3000 nM | >9700 | 439 nM | 0.31 nM | > 3000 nM | >9700 |  |
| CCCC[C@@H]1NC(=O)[C@@H]2CSSC[C@H](N)C(=O)N[C@@H](CO)C(=O)N[C@@H](C)C(=O)N[C@@H](CO)C(=O)N[C@@H](C(C)C)C(=O)N[C@@H](CCC(=O)O)C(=O)N[C@H]3CSSC[C@H](NC(=O)[C@H](CCCCN)NC(=O)[C@H](CCCCN)NC(=O)[C@H](CC(N)=O)NC1=O)C(=O)N[C@@H](CCCCN)C(=O)N[C@H](C(=O)N[C@@H](Cc1ccc(O)cc1)C(=O)N1CCC[C@H]1C(=O)N[C@@H](CCCNC(=N)N)C(N)=O)CSSC[C@H](NC(=O)[C@H](CCCCN)NC(=O)[C@H](CCC(N)=O)NC(=O)[C@H](CCCCN)NC3=O)C(=O)N[C@@H](CC(C)C)C(=O)N[C@@H](CCCCN)C(=O)N[C@@H](C)C(=O)N[C@@H]([C@@H](C)CC)C(=O)NCC(=O)N[C@@H](CO)C(=O)N[C@@H]([C@@H](C)CC)C(=O)N[C@@H](Cc1ccccc1)C(=O)NCC(=O)N[C@@H](CCCCN)C(=O)N2 [Compound 104] (H-CSASVECKQKCLKAIGSIFGKC[Nle]NKKCKCYPR-NH2; disulfide 1-22, 7-27, 11-29) | 0.12 nM | > 3000 nM | >7000 | > 3000 nM | 0.43 nM | > 3000 nM | >7000 | >7000 |
| CC[C@H](C)[C@@H]1NC(=O)[C@H](C)NC(=O)[C@H](CCCCN)NC(=O)[C@H](CC(C)C)NC(=O)[C@@H]2CSSC[C@@H](C(=O)N[C@@H](Cc3ccc(O)cc3)C(=O)N3CCC[C@H]3C(=O)N[C@@H](CCCNC(=N)N)C(N)=O)NC(=O)[C@H](CCCCN)NC(=O)[C@@H]3CSSC[C@H](NC(=O)[C@H](CCC(=O)O)NC(=O)[C@H](C(C)C)NC(=O)[C@H](CO)NC(=O)[C@H](C)NC(=O)[C@H](CO)NC(=O)[C@@H](NC(=O)[C@H](CCCNC(=N)N)NC(=O)[C@H](CCSC)NC(=O)[C@H](CC(=O)O)NC(=O)[C@H](CCSC)NC(=O)[C@@H](N)CC(N)=O)CSSC[C@H](NC(=O)[C@H](CCCCN)NC(=O)CNC(=O)[C@H](Cc4ccccc4)NC(=O)[C@H]([C@@H](C)CC)NC(=O)[C@H](CO)NC(=O)CNC1=O)C(=O)N[C@@H](CCSC)C(=O)N[C@@H](CC(N)=O)C(=O)N[C@@H](CCCCN)C(=O)N[C@@H](CCCCN)C(=O)N3)C(=O)N[C@@H](CCCCN)C(=O)N[C@@H](CCC(N)=O)C(=O)N[C@@H](CC(C)C)C(=O)N2 [Compound 18] (H-NMDMRCSASVECKQLCLKAIGSIFGKCMNKKCKCYPR-NH2; disulfide 6-27, 12-32, 16-34) | 0.19 nM | > 3000 nM | >12700 | 256 nM | 0.24 nM | > 3000 nM | >12700 |  |
